Target: T1, ssGDH (glucose dehydrogenase from Sulfolobus solfataricus) (Saccharolobus solfataricus, UniProt O93715)
T1 construct: gene gdh; full-length, recombinant from pET3a, heat step (70 °C), anion exchange and gel filtration, no tag mentioned; homotetramer; five Trp per monomer
Experiment: steady-state NADPH formation at […] nm
Type: biochemical
Details: apparent substrate inhibition; co-substrate NADP+; 100 mM HEPES pH 8; temperature not stated with the value

T1 sequence (O93715 whole entry): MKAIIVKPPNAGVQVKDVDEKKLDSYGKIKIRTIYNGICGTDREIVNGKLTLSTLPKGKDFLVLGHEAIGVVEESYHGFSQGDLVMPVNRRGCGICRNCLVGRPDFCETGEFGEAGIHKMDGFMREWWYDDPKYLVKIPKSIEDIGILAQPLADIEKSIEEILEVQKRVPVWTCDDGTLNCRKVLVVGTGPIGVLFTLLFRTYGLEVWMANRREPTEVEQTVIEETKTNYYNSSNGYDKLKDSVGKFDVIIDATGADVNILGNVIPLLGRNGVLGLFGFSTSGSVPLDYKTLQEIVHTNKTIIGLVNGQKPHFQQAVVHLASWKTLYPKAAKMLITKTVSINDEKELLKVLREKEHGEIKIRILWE

Ki: 29.5 ± 8.7 mM
Structure (SMILES): OC[C@@H]1C[C@H](O)[C@@H](O)C(O)O1 (stereo partly drawn) [4-deoxy, 4-deoxy-D-glucose]

Source: publication PMC8689651, “Chemical Mapping Exposes the Importance of Active Site Interactions in Governing the Temperature Dependence of Enzyme Turnover” (ACS Catalysis, 2021)
